Data on ten molecules can be found in US6770637B2, “Substituted 4-phenyl-pyridine compounds with activity as antagonists of neurokinin 1 receptors” (Hoffmann-La Roche Inc., priority 2000, dated 2004).

As a reminder, the Ki is a measure of affinity in units of concentration, obtained from inhibition or displacement. Low readings indicate tighter binding, high ones weaker binding.

For the test, the target named is T1, human NK1 receptor (Homo sapiens, UniProt P25103).
T1 construct: expressed in transfected cells; host or cells: CHO cells infected with the Semliki virus expression system; membrane suspension
T1 sequence (P25103 whole entry): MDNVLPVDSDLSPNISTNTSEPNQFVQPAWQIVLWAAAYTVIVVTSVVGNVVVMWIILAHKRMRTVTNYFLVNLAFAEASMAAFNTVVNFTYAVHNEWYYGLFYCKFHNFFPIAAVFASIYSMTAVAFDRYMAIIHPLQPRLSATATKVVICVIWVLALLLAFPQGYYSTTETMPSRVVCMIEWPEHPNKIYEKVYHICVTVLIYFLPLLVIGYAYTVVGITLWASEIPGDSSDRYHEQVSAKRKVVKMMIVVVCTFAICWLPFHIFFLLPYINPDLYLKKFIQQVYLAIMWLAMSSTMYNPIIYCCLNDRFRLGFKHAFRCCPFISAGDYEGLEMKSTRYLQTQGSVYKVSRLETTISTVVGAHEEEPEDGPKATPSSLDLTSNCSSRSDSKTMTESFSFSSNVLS
The test is described as follows: NK1 receptor binding assay, displacement of [3H]substance P. The settings on record: affinity to the NK-1 receptor; human NK1 receptors in CHO cells (Semliki virus expression system); [3H]substance P 0.6 nM. As for the experimental part:
The affinity of tests compounds for the NK1 receptor was evaluated at human NK 1 receptors in CHO cells infected with the human NK1 receptor (using the Semliki virus expression system) and radiolabelled with [^3H]substance P (final concentration 0.6 nM.) Binding assays were performed in HEPES buffer (50 mM, pH 7.4) containing BSA (0.04%) leupeptin (8 μg/ml), MnCl2 (3 mM) and phosphoramidon (2 μM). Binding assays consisted of 250 μl of membrane suspension (1.25×10^5 cells/assay tube), […] of bugger of displacing agent and 125 μl of [^3H]substance P. Displacement curves were determined with at least seven concentrations of the compound. The assay tubes were incubated for 60 min at room temperature after which time the tube contents were rapidly filtered under vacuum through GF/C filters presoaked for 60 min with PEI (0.3%) with 2×2 ml washes of HEPES buffer (50 mM, pH 7.4). The radioactivity retained on the filters was measured by scintillation counting. All assays were performed in triplicate in at least 2 separate experiments.
`CC(=O)c1ccc(-c2cc(-c3ccccc3C)c(C(=O)N(C)Cc3cc(C(F)(F)F)cc(C(F)(F)F)c3)cn2)s1` [Example 38, 6-(5-Acetyl-thiophen-2-yl)-N-(3,5-bis-trifluoromethyl-benzyl)-N-methyl-4-o-tolyl-nicotinamide] showed a Ki of 2.14 nM.
For `C#Cc1cc(-c2ccccc2C)c(N(C)C(=O)C(C)(C)c2cc(C(F)(F)F)cc(C(F)(F)F)c2)cn1` [Example 66, 2-(3,5-Bis-trifluoromethyl-phenyl)-N-(6-ethynyl-4-o-tolyl-pyridin-3-yl)-N-methyl-isobutyramide] the value was 2.69 nM.
Then `Cc1ccccc1-c1cc(C2=CCNCC2)ncc1C(=O)N(C)Cc1cc(C(F)(F)F)cc(C(F)(F)F)c1` [Example 42, 4-o-Tolyl-1′,2′,3′,6′-tetrahydro-[2,4′]bipyridinyl-5-carboxylic acid (3,5-bis-trifluoromethyl-benzyl)-methyl-amide], with 0.832 nM; and `Cc1ccccc1-c1cc([S+]([O-])c2ccccn2)ncc1C(=O)N(C)Cc1cc(C(F)(F)F)cc(C(F)(F)F)c1` (racemic) [Example 99, (RS)-N-(3,5-Bis-trifluoromethyl-benzyl)-N-methyl-6-(pyridine-2-sulfinyl)-4-o-tolyl-nicotinamide], with 2.63 nM; and `Cc1ccccc1-c1cc(NC(=O)CO)ncc1N(C)C(=O)C(C)(C)c1cc(C(F)(F)F)cc(C(F)(F)F)c1` [Example 13, 2-(3,5-Bis-trifluoromethyl-phenyl)-N-[6-(2-hydroxy-acetylamino)-4-o-tolyl-pyridin-3-yl]-N-methyl-isobutyramide], with 1.62 nM.
Consider `Cc1noc(-c2cc(-c3ccccc3C)c(C(=O)N(C)Cc3cc(C(F)(F)F)cc(C(F)(F)F)c3)cn2)n1` [Example 62, N-(3,5-Bis-trifluoromethyl-benzyl)-N-methyl-6-(3-methyl-[1,2,4]oxadiazol-5-yl)-4-o-tolyl-nicotinamide], for which the affinity, expressed as Ki, was 3.02 nM. Against the preceding molecule, the Ki is about 1.9-fold higher.
In turn, `Cc1ccccc1-c1cc(N(O)CCO)ncc1N(C)C(=O)C(C)(C)c1cc(C(F)(F)F)cc(C(F)(F)F)c1` [Example 8, 2-(3,5-Bis-trifluoromethyl-phenyl)-N-{6-[hydroxy-(2-hydroxy-ethyl)-amino]-4-o-tolyl-pyridin-3-yl}-N-methyl-isobutyramide] showed a Ki of 0.513 nM.
For `Cc1ccccc1-c1cc(OCCCO)ncc1C(=O)N(C)Cc1cc(C(F)(F)F)cc(C(F)(F)F)c1` [Example 113, N-(3,5-Bis-trifluoromethyl-benzyl)-6-(3-hydroxy-propoxy)-N-methyl-4-o-tolyl-nicotinamide] the value was 1.66 nM.
For `Cc1ccccc1-c1cc(N(C(=O)C2CC2)C(=O)C2CC2)ncc1N(C)C(=O)C(C)(C)c1cc(C(F)(F)F)cc(C(F)(F)F)c1` [Example 16, Cyclopropanecarboxylic acid (5-{[2-(3,5-bis-trifluoromethyl-phenyl)-2-methyl-propionyl]-methyl-amino}-4-o-tolyl-pyridin-2-yl)-cyclopropanecarbonyl-amide] the value was 3.16 nM.
Molecule `Cc1ccccc1-c1cc(Cl)ncc1N(C)C(=O)C(C)(C)c1cc(C(F)(F)F)cc(C(F)(F)F)c1` [Example 26, 2-(3,5-Bis-trifluoromethyl-phenyl)-N-(6-chloro-4-o-tolyl-pyridin-3-yl)-N-methyl-isobutyramide] gave a Ki of 2.24 nM.
